In patent publication US6914045B2, “Glycopeptide antibiotics” (Wyeth Holdings Corporation, priority 2001, dated 2005):

Legend:
Assay in all cases: in vitro antibacterial evaluation, MIC by broth dilution
Format in all cases: cell-based
Staphylococcus sp. = conditions: broth dilution, 18 hours at 35° C.; for MIC Staphylococcus aureus (GC 1131): strain GC 1131
How it was run: (§1)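 Step 1: dilute antibiotic across 64-0.06 μg/mL in Muller-Hinton II […]. Step 2: inoculate at 5×10^5 CFU/mL.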

Escherichia coli = tested on: Escherichia coli
How it was run: as §1

Enterococcus sp. = conditions: broth dilution, 18 hours at 35° C.
How it was run: as §1

Streptococcus sp. = conditions: broth dilution, 18 hours at 35° C.
How it was run: as §1

COc1cccc(C2OC3C(OC4C(CO)OC(Oc5ccc(CC6NC(=O)C(C(C)c7ccccc7)NC(=O)CNC(=O)C(CO)NC(=O)C(C(O)C7CNC(=N)N7C7OC(CO)C(O)C(O)C7O)NC(=O)C(C(O)C7CNC(=N)N7)NC6=O)cc5)C(O)C4O)OC(CO)C(O)C3O2)c1 (single isomer, unassigned) [Example 137a, Cyclo[glycyl-β-methylphenylalanyl-O-[4-O-[2,3-O-(3-methoxybenzylidene)hexopyranosyl]-hexopyranosyl]tyrosyl-3-(2-iminoimidazolidin-4-yl)seryl-3-(3-hexopyranosyl-2-iminoimidazolidin-4-yl)serylseryl]]
64 µg/mL: MIC Enterococcus avium (GC 4558) (Enterococcus sp.; Enterococcus avium (GC 4558)) | MIC Enterococcus avium (GC 4558) (Enterococcus sp.; strain GC 4558)
4 µg/mL: MIC Streptococcus pneumoniae (GC 1894) (Streptococcus sp.; Streptococcus pneumoniae (GC 1894)) | MIC Streptococcus pneumoniae (GC 1894) (Streptococcus sp.; strain GC 1894)
16 µg/mL: MIC Staphylococcus aureus (GC 4541) (Staphylococcus sp.; strain GC 4541) | MIC Staphylococcus aureus-SMITH (GC 4543) (Staphylococcus sp.; strain GC 4543) | MIC Staphylococcus haemolyticus (GC 4546) (Staphylococcus sp.; strain GC 4546) | MIC Coagulase Negative Staphylococcus (GC 4547) (Staphylococcus sp.; strain GC 4547) | MIC Coagulase Negative Staphylococcus (GC 4551) (Staphylococcus sp.; strain GC 4551) | MIC Staphylococcus aureus-SMITH (GC 4543) (Staphylococcus sp.; strain SMITH GC 4543) | MIC Enterococcus faecium (GC 4557) (Enterococcus sp.; Enterococcus faecium (GC 4557)) | MIC Enterococcus faecium (GC 4557) (Enterococcus sp.; strain GC 4557) | MIC Streptococcus agalactiae (GC 4564) (Streptococcus sp.; Streptococcus agalactiae (GC 4564)) | MIC Streptococcus pneumoniae (GC 4565) (Streptococcus sp.; Streptococcus pneumoniae (GC 4565)) | MIC Streptococcus pyogenes (GC 4563) (Streptococcus sp.; Streptococcus pyogenes (GC 4563)) | MIC Streptococcus pyogenes (GC 4563) (Streptococcus sp.; strain GC 4563) | MIC Streptococcus agalactiae (GC 4564) (Streptococcus sp.; strain GC 4564) | MIC Streptococcus pneumoniae (GC 4565) (Streptococcus sp.; strain GC 4565)
32 µg/mL: MIC Staphylococcus aureus (GC 1131) (Staphylococcus sp.; inoculum 5×10^5 CFU/mL) | MIC Staphylococcus aureus (ATCC 29213) (Staphylococcus sp.; strain ATCC 29213) | MIC Staphylococcus aureus (GC 1131) (Staphylococcus sp.) | MIC Staphylococcus aureus (GC 3051) (Staphylococcus sp.; strain GC 3051) | MIC Staphylococcus aureus (GC 3053) (Staphylococcus sp.; strain GC 3053) | MIC Staphylococcus aureus (GC 4542) (Staphylococcus sp.; strain GC 4542) | MIC Staphylococcus aureus (GC 4544) (Staphylococcus sp.; strain GC 4544) | MIC Staphylococcus aureus (GC 4545) (Staphylococcus sp.; strain GC 4545)
8 µg/mL: MIC Coagulase Negative Staphylococcus (GC 4548) (Staphylococcus sp.; strain GC 4548) | MIC Coagulase Negative Staphylococcus (GC 4549) (Staphylococcus sp.; strain GC 4549) | MIC Coagulase Negative Staphylococcus (GC 6257) (Staphylococcus sp.; strain GC 6257) | MIC Escherichia coli (GC 4560) (Escherichia coli; strain GC 4560, 18 hours at 35° C.) | MIC Streptococcus pneumoniae (ATCC 6301) (Streptococcus sp.; Streptococcus pneumoniae (ATCC 6301)) | MIC Streptococcus pneumoniae (ATCC 6301) (Streptococcus sp.; strain ATCC 6301)
>64 µg/mL: MIC Escherichia coli (ATCC 25922) (Escherichia coli; strain ATCC 25922, 18 hours at 35° C.) | MIC Escherichia coli (GC 4559) (Escherichia coli; strain GC 4559, 18 hours at 35° C.) | MIC Enterococcus faecalis (ATCC 29212) (Enterococcus sp.; Enterococcus faecalis (ATCC 29212)) | MIC Enterococcus faecalis (GC 2242) (Enterococcus sp.; Enterococcus faecalis (GC 2242)) | MIC Enterococcus faecalis (GC 2691) (Enterococcus sp.; Enterococcus faecalis (GC 2691)) | MIC Enterococcus faecalis (GC 3059) (Enterococcus sp.; Enterococcus faecalis (GC 3059)) | MIC Enterococcus faecalis (GC 4552) (Enterococcus sp.; Enterococcus faecalis (GC 4552)) | MIC Enterococcus faecalis (GC 4553) (Enterococcus sp.; Enterococcus faecalis (GC 4553)) | MIC Enterococcus faecalis (GC 4554) (Enterococcus sp.; Enterococcus faecalis (GC 4554)) | MIC Enterococcus faecalis (GC 6189) (Enterococcus sp.; Enterococcus faecalis (GC 6189)) | MIC Enterococcus faecium (GC 2243) (Enterococcus sp.; Enterococcus faecium (GC 2243)) | MIC Enterococcus faecium (GC 4556) (Enterococcus sp.; Enterococcus faecium (GC 4556)) | MIC Enterococcus faecalis (ATCC 29212) (Enterococcus sp.; strain ATCC 29212) | MIC Enterococcus faecalis (GC 2242) (Enterococcus sp.; strain GC 2242) | MIC Enterococcus faecium (GC 2243) (Enterococcus sp.; strain GC 2243) | MIC Enterococcus faecalis (GC 2691) (Enterococcus sp.; strain GC 2691) | MIC Enterococcus faecalis (GC 3059) (Enterococcus sp.; strain GC 3059) | MIC Enterococcus faecalis (GC 4552) (Enterococcus sp.; strain GC 4552) | MIC Enterococcus faecalis (GC 4553) (Enterococcus sp.; strain GC 4553) | MIC Enterococcus faecalis (GC 4554) (Enterococcus sp.; strain GC 4554) | MIC Enterococcus faecium (GC 4556) (Enterococcus sp.; strain GC 4556) | MIC Enterococcus faecalis (GC 6189) (Enterococcus sp.; strain GC 6189)
